Assay results: patent US8975371B2, “Melanoma antigen peptide and uses thereof” (INSERM (Institut National de la Sante et de la Recherche …, priority 2008, dated 2015)
Where two headings read alike, the source gives them in different places.

What was measured:
Format in all cases: cell-based, human
[1] = tested on: MELOE-1 specific T cell clones / peptide-loaded T2 cells; assay: Relative avidity of MELOE-1 specific T cell clones, 4-h 51Cr assay against peptide-loaded T2 cells
Method: Cytotoxicity of MELOE-1 specific CTL clones against peptide-pulsed T2 cells. Target cells were chromium labeled for 60 min and incubated for 30 min with a range of the MELOE-136-44 peptide. T cell clones derived from healthy donors (A), melanoma patients PBMC (B) and TIL (C) were added at an E/T ratio of 10/1 and chromium release was then measured after a 4 h incubation period. (D) Mean EC50 of the MELOE-1 specific T cell clones in response to the MELOE-136-44 peptide, according to their origin. EC50 were compared using statistical analysis done with InStat 2.01. Data were analyzed using Kruskal-Wallis comparison test. *p=0.019, considered significant.
The relative avidity of […] specific T cell clones and their anti-tumor reactivity was measured respectively in a standard 4-h assay against ^51Cr-labeled peptide-loaded T2 cells and towards HLA-A2 melanoma cell lines. Briefly, target cells (peptide pulsed-T2 or melanoma cells) were incubated with 100 μCi Na2^51CrO4 (Oris Industrie, Gif-sur-Yvette, France) at 37° C. for 1 h. For peptide recognition assays, T2 cells were preincubated with a range of […] peptide concentrations for 1 h at 37° C. […] Data were analyzed using Kruskal-Wallis comparison test, followed by Dunn'post test. […]

[2] = tested on: M170.48 CTL clone / peptide-pulsed T2 cells; assay: Cytotoxicity of M170.48 CTL clone against peptide-pulsed T2 cells (4 h 51Cr release); settings: peptide loaded on T2 cells
Method: (§1) (A) Structure of meloe cDNA. Black boxes correspond to ORFs tested for recognition by the CTL clone. (B) M170.48 and M170.51 TNF responses to COS-7 cells (E/T ratio 1/3) transfected with indicated plasmids. T cell clone was added 2 days after the transfection and the CTL clone reactivity was assessed by a TNF release assay. (C) Amino acid sequences of the ORF 1230-1370 and the ORF 285-404 of meloe isolated from M134 cDNA library. (D and E) Cytotoxicity of M170.48 CTL clone (D) and M170.51 CTL clone(E) against peptide-pulsed T2 cells. Target cells were chromium labeled for 60 min and incubated for 30 min with a range of the indicated peptides. T cell clones were added at an E/T ratio of 10/1 and chromium release was then measured after a 4 h incubation period.
(§2) Cytotoxic activity of T cells was measured in a standard 4-h assay against ^51Cr-labeled cells (peptide-loaded T2 cells or tumor cell lines) (23). […] After staining, cells were resuspended in PBS and analyzed on a LSR flow cytometer using Cell Quest software. […]

[3] = tested on: M170.51 CTL clone / peptide-pulsed T2 cells; assay: Cytotoxicity of M170.51 CTL clone against peptide-pulsed T2 cells (4 h 51Cr release); settings: peptide loaded on T2 cells
Method: as §1, §2

TLNDECWPA
EC50 ([1]; healthy donor clonotype HD1.21, read-out: EC50 of clonotype HD1.21): 10 nM | EC50 ([1]; healthy donor clonotype HD3.38, read-out: EC50 of clonotype HD3.38): 1 nM | recognition by M170.48 T cell clone [2]: recognized | EC50 ([2]; M170.48 CTL clone, E/T ratio 10/1, 4 h chromium release, read-out: half maximal lysis): 10 nM

RCPPKPPLA
recognition by M170.51 T cell clone [3]: recognized | EC50 ([3]; M170.51 CTL clone, E/T ratio 10/1, 4 h chromium release, read-out: half maximal lysis (converted)): 50 nM
